The values below come from ChEMBL document CHEMBL6109156, “Discovery of Dual PD-L1/HDAC3 Inhibitors for Tumor Immunotherapy” (J Med Chem, 2025).

Assay [1] deals with Histone deacetylase 1 (Homo sapiens, UniProt Q13547). The assay can be described thus: Inhibition of human recombinant HDAC1 using Ac-Leu-Gly-Lys (Ac)-AMC as substrate preincubated for 10 mins followed by substrate addition and measured after 45 mins by TECAN microtiter plate reader analysis.
Assay [2] concerns the target T1, Histone deacetylase 3 (Homo sapiens, UniProt O15379). Nature of the assay: Inhibition of human recombinant HDAC3 using Ac-Leu-Gly-Lys (Ac)-AMC as substrate preincubated for 10 mins followed by substrate addition and measured after 45 mins by TECAN microtiter plate reader analysis.
In assay [3] the target is T2, Histone deacetylase 8 (Homo sapiens, UniProt Q9BY41).
T2 sequence (Q9BY41 whole entry): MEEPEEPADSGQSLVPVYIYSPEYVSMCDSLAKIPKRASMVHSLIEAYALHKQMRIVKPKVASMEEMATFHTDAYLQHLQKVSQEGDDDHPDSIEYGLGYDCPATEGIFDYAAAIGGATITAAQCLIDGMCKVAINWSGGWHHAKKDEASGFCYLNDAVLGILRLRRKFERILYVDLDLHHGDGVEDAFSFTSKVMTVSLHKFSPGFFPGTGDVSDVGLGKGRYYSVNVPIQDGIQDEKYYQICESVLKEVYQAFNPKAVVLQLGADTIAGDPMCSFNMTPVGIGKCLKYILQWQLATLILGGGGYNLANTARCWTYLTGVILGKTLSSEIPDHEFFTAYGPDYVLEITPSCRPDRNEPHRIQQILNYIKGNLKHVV
The assay can be described thus: Inhibition of human recombinant HDAC8 using Ac-Leu-Gly-Lys (Tfa)-AMC as substrate preincubated for 10 mins followed by substrate addition and measured after 45 mins by TECAN microtiter plate reader analysis.

The target of assay [4] is T3, Protein deacetylase HDAC6 (Homo sapiens, UniProt Q9UBN7).
T3 sequence (Q9UBN7 whole entry): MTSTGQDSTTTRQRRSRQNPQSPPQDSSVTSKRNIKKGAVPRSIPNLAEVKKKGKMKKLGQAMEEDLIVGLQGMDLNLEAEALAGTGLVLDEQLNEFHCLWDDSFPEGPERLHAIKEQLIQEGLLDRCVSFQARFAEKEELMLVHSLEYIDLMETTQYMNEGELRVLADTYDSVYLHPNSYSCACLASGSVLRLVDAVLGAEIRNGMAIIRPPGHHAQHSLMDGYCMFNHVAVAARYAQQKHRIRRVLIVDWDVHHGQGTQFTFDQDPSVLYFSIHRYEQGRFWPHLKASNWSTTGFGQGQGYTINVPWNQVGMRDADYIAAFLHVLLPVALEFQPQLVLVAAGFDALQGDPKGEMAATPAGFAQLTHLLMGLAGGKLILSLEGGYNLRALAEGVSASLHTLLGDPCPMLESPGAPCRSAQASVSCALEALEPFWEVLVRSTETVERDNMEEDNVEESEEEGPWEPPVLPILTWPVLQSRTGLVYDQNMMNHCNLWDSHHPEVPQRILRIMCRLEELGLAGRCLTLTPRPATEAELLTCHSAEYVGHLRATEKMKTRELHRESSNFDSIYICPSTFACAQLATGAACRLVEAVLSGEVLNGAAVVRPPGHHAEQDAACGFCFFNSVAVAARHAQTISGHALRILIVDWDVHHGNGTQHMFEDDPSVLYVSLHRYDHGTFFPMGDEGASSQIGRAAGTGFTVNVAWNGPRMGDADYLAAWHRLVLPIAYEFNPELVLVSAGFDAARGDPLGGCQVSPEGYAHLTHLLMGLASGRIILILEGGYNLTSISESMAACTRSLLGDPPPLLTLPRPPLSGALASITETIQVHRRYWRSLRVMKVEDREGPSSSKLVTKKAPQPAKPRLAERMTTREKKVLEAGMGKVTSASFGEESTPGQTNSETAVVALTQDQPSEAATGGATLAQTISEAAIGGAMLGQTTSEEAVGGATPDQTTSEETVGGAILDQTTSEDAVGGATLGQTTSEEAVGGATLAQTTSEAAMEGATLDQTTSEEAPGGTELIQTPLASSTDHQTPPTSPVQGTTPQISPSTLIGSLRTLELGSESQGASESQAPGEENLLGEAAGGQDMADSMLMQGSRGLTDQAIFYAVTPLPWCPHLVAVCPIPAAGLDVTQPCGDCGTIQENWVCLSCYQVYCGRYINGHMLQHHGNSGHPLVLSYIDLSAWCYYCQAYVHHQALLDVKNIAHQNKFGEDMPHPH
Nature of the assay: Inhibition of human recombinant HDAC6 using Ac-Leu-Gly-Lys (Ac)-AMC as substrate preincubated for 10 mins followed by substrate addition and measured after 45 mins by TECAN microtiter plate reader analysis.

The target of assay [5] is T4, Programmed cell death protein 1/Programmed cell death 1 ligand 1 (Homo sapiens) (UniProt Q15116+Q9NZQ7). The assay can be described thus: Inhibition of PD-1/PD-L1 (unknown origin) interaction assessed as inhibition rate at 0.1 uM by HTRF assay relative to control. Type of assay: protein-complex assay. Background: Time-resolved FRET reads energy transfer from a long-lived donor to a nearby acceptor.

In assay [6] the target is T1, Histone deacetylase 3. The assay can be described thus: Inhibition of human recombinant HDAC3 using Ac-Leu-Gly-Lys (Ac)-AMC as substrate at 0.1 uM preincubated for 10 mins followed by substrate addition and measured after 45 mins by TECAN microtiter plate reader analysis relative to control. The settings on record: time 55.0 min.
Assay [7] addresses T1, Histone deacetylase 3. The assay can be described thus: Inhibition of human recombinant HDAC3 using Ac-Leu-Gly-Lys (Ac)-AMC as substrate at 1 uM preincubated for 10 mins followed by substrate addition and measured after 45 mins by TECAN microtiter plate reader analysis relative to control. The settings on record: time 55.0 min.
The target in assay [8] is T4, Programmed cell death protein 1/Programmed cell death 1 ligand 1 (Homo sapiens). Nature of the assay: (§1) Inhibition of PD-1/PD-L1 (unknown origin) interaction assessed as inhibition rate at 1 uM by HTRF assay relative to control. Type of assay: protein-complex assay.
The target of assay [9] is Programmed cell death protein 1/Programmed cell death 1 ligand 1 (Homo sapiens, UniProt Q9NZQ7). Described as §1. It counts as protein-complex assay.
Assay [10] relates to B16-F10. The assay can be described thus: Antiproliferative activity against mouse B16-F10 cells assessed as cell growth inhibition incubated for 48 hrs by MTT assay. Type of assay: functional, cell-based. To be noted: B16-F10, 48 h. For orientation: Formazan colour is commonly taken as a measure of viable cells.
In assay [11] the test system is HCT-116. Nature of the assay: Antiproliferative activity against human HCT-116 cells assessed as cell growth inhibition incubated for 48 hrs by MTT assay. Type of assay: functional, cell-based. To be noted: HCT-116, 48 h.
In assay [12] the test system is HepG2. Nature of the assay: Antiproliferative activity against human HepG2 cells assessed as cell growth inhibition incubated for 48 hrs by MTT assay. It counts as functional, cell-based. The settings on record: HepG2, 48 h.
Assay [13] relates to A-375. Nature of the assay: Antiproliferative activity against human A-375 cells assessed as cell growth inhibition incubated for 48 hrs by MTT assay. Type of assay: functional, cell-based. To be noted: A-375, 48 h.
In assay [14] the test system is MDA-MB-231. The assay can be described thus: Antiproliferative activity against human MDA-MB-231 cells assessed as cell growth inhibition incubated for 48 hrs by MTT assay. Type of assay: functional, cell-based. The settings on record: MDA-MB-231, 48 h.
The target in assay [15] is T5, Histone deacetylase 3 (Mus musculus) (UniProt O88895).
T5 sequence (whole entry): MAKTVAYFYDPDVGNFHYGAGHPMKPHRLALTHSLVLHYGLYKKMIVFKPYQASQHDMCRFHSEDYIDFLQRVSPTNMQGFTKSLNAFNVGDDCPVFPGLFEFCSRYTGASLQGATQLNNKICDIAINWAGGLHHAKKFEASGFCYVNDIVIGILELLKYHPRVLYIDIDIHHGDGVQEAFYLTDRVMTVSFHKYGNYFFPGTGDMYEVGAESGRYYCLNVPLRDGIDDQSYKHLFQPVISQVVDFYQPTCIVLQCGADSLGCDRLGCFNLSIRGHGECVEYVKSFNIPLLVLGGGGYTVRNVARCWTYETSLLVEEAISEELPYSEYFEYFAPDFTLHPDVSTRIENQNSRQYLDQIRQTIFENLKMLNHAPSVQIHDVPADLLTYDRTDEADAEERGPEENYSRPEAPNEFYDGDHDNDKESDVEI
The assay can be described thus: Inhibition of HDAC3 in mouse B16-F10 cells assessed as upregulation of Ac-H3 level at 3 uM incubated for 24 hrs by Western blotting analysis. Type of assay: cell-based.

Assay [16] deals with 4T1. The assay can be described thus: Antiproliferative activity against mouse 4T1 cells assessed as cell growth inhibition incubated for 48 hrs by MTT assay. It counts as functional, cell-based. The settings on record: 4T1, 48 h.

pIC50: −log10 of the molar value. The source made the active and inactive calls. No cut-off for these calls is given here.

Sequence of Programmed cell death protein 1/Programmed cell death 1 ligand 1 (Q15116 whole entry): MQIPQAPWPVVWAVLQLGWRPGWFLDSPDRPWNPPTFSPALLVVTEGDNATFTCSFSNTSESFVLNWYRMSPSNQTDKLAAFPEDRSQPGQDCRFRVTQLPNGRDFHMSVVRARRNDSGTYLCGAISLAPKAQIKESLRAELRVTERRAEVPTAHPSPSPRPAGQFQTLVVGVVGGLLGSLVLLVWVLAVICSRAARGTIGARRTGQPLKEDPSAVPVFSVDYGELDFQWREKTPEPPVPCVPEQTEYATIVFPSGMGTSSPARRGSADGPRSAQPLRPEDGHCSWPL
Sequence of Programmed cell death protein 1/Programmed cell death 1 ligand 1 (Q9NZQ7 whole entry): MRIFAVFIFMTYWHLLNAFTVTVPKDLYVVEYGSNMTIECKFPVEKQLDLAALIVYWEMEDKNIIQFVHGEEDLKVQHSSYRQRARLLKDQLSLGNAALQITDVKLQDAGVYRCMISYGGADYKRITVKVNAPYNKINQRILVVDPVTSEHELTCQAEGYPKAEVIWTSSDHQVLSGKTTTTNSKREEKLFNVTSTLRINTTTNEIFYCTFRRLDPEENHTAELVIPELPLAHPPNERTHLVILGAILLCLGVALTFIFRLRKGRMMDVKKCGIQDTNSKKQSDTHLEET
Sequence of Histone deacetylase 1 (Q13547 whole entry): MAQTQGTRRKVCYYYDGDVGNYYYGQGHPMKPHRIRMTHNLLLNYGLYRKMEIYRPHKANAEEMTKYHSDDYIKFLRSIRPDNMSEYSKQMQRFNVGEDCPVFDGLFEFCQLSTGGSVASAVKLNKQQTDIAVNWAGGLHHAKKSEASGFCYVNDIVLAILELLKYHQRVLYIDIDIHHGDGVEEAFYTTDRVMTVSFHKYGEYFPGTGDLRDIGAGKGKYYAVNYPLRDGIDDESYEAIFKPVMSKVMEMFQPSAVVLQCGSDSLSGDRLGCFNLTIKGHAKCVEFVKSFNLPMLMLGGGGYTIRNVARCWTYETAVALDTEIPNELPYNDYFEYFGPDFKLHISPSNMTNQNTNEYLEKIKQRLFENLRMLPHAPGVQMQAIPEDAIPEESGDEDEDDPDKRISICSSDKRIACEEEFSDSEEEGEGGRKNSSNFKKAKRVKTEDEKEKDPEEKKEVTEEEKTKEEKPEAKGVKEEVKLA
T1 sequence (O15379 whole entry): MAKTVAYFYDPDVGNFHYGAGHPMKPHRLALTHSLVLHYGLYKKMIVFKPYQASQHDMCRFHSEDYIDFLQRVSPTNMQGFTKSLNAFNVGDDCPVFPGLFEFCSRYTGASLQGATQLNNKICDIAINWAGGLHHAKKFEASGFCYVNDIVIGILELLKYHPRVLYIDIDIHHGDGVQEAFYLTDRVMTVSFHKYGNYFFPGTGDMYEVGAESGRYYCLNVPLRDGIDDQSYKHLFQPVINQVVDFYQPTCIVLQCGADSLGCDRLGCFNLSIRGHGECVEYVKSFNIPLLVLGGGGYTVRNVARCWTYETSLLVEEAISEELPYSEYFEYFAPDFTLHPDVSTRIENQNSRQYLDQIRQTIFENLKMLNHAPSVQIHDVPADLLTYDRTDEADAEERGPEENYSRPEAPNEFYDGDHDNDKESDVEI

As for `CCCNNC(=O)CCCCCNCc1ccc(-c2cccc(-c3ccccc3)c2C)nc1OC`, the pIC50 was 6.27 in [1]; 6.97 in [2]; less than 5.00 in assay [3]; less than 5.00 in [4]; 6.67 in assay [9]. Moreover, the inhibition came out at 37.3% in assay [5], 53.6% in assay [6], 82% in assay [7] and 92.7% in assay [8].

`CCCNNC(=O)c1cnc(N2CCC(NCc3ccc(-c4cccc(-c5ccccc5)c4C)nc3OC)CC2)nc1`: the inhibition in assay [5] was 3.6%; in [7], less than 50%; in assay [8], 71.7%.

On to `CCCNNC(=O)C1CCN(Cc2ccc(-c3cccc(-c4ccccc4)c3C)nc2OC)CC1`, for which the inhibition in [5] was found to be 21.7%; in assay [6] it was 33.2%; in [7], 71.3%; in assay [8], 82.7%.

As for `CCCNNC(=O)c1ccc(C(=O)NCCNCc2ccc(-c3cccc(-c4ccccc4)c3C)nc2OC)cc1`, the inhibition was determined as 23.4% in assay [5], 46.8% in assay [6], 74.3% in [7] and 88.1% in [8].

Take `CCCNNC(=O)CC1CCN(Cc2ccc(-c3cccc(-c4ccccc4)c3C)nc2OC)CC1`: the inhibition in assay [5] is 25.7%; in [7], less than 50%; in [8], 89.4%.

In the case of `CCCNNC(=O)c1ccc(NCc2ccc(-c3cccc(-c4ccccc4)c3C)nc2OC)cc1`, the inhibition is 1.83% in assay [5] and 7.61% in assay [8].

On to `CCCNNC(=O)CCCCCCNCc1ccc(-c2cccc(-c3ccccc3)c2C)nc1OC`, for which the inhibition in [5] was 12.5%; in [7] it was 55.8%; in assay [8], 89.8%.

With `CCCNNC(=O)CC1CCCN(Cc2ccc(-c3cccc(-c4ccccc4)c3C)nc2OC)C1` (stereo not given), the inhibition stood at 4.75% in [5] and 59.1% in [8].

As to `CCCNNC(=O)CCNCc1ccc(-c2cccc(-c3ccccc3)c2C)nc1OC`, the inhibition stood at 58.8% in assay [5], 36% in assay [6], 67.2% in [7] and 92.4% in assay [8].

For the compound `CCCNNC(=O)c1ccc(CNCc2ccc(-c3cccc(-c4ccccc4)c3C)nc2OC)cc1`, the results for the inhibition in assay [5] and in [8] were 11.3% and 42.4%, respectively.

Regarding `CCCNNC(=O)c1ccc(NCCNCc2ccc(-c3cccc(-c4ccccc4)c3C)nc2OC)cc1`, the inhibition in [5] is 4.12%; in assay [8], 11.1%.

Consider `CCCNNC(=O)c1cnc(NCCNCc2ccc(-c3cccc(-c4ccccc4)c3C)nc2OC)cn1`, for which the pIC50 in assay [10] was 5.16; in [11], 4.83; in assay [1], 5.67; in [12], 5.15; in assay [2], 6.77; in assay [3], less than 5.00. Moreover, the pIC50 in [4] was less than 5.00; in assay [13] it was 4.99; in [14], 4.86; in assay [16], 5.13; in [9] it was 7.19. Besides, the inhibition came out at 46% in assay [5], 40.2% in assay [6], 79.7% in assay [7] and 94.4% in assay [8]. Also, the inhibition entry in assay [15] was “Active”.

As to `CCCNNC(=O)c1cnc(N2CCC(NCc3ccc(-c4cccc(-c5ccccc5)c4C)nc3OC)CC2)cn1`, the inhibition amounted to 7.82% in assay [5] and 62.6% in assay [8].

On to `CCCNNC(=O)CNCc1ccc(-c2cccc(-c3ccccc3)c2C)nc1OC`, for which the inhibition in assay [5] amounted to 19.5%; in assay [8], 68.9%.

Turning to `CCCNNC(=O)c1cnc(NCCCNCc2ccc(-c3cccc(-c4ccccc4)c3C)nc2OC)cn1`, the figures for the inhibition in assay [5], in assay [7] and in [8] were 18.8%, less than 50% and 80.9%, respectively.

For the compound `CCCNNC(=O)c1cnc(N2CC(NCc3ccc(-c4cccc(-c5ccccc5)c4C)nc3OC)C2)nc1`, the inhibition turned out to be 17.8% in [5] and 68.2% in assay [8].

For `CCCNNC(=O)c1ccc(NCCNCc2ccc(-c3cccc(-c4ccccc4)c3C)nc2OC)nn1`, the inhibition in assay [5] was 9.3%; in [6], 38.5%; in [7], 69.5%; in assay [8] it was 78.5%.

With `CCCNNC(=O)c1cnc(N(C)CCN(C)Cc2ccc(-c3cccc(-c4ccccc4)c3C)nc2OC)nc1`, the inhibition in assay [5] amounted to 5.96%; in assay [8], 28.8%.

Take `CCCNNC(=O)CCCCNCc1ccc(-c2cccc(-c3ccccc3)c2C)nc1OC`: the pIC50 in assay [1] was 6.34; in assay [2], 6.95; in [3], less than 5.00; in assay [4] it was less than 5.00; in assay [9] it was 7.15. For the same compound, the inhibition was 54.4% in [5], 41.9% in assay [6], 79.4% in assay [7] and 92.5% in assay [8].

`CCCNNC(=O)c1cnc(NCCNCc2ccc(-c3cccc(-c4ccccc4)c3C)nc2OC)nc1`: the inhibition in assay [5] was 44.5%; in assay [7], less than 50%; in assay [8], 95.1%.

Regarding `CCCNNC(=O)c1cnc(N2CC(NCc3ccc(-c4cccc(-c5ccccc5)c4C)nc3OC)C2)cn1`, the inhibition came out at 13.5% in [5] and 54.5% in [8].

With `CCCNNC(=O)c1ccc(NCc2ccc(-c3cccc(-c4ccccc4)c3C)nc2OC)c(C)c1`, the results for the inhibition in assay [5] and in [8] were -0.25% and 4.65%, respectively.

A word on the pIC50: it is −log10 of the IC50, conventionally taken in molar units. What is called inhibition is the relative decrease from the control value, in per cent.
